How the values were obtained:
[1] = system: dorsal skin of UV-irradiated SKH-1 hairless mice; experiment: Wrinkle evaluation of dorsal skin of UV-irradiated hairless mice (visual grade, negative replica); assay type: in vivo, mouse; details: UV 8 weeks, 5 mg/kg daily oral; for visual wrinkle grade: clinical images rated by two practitioners; for wrinkle area in replicated images: compared to the control group; for thickness of wrinkles of dorsal skin: compared with the control group
Experimental: (§1) In order to irradiate animals with UV, the minimal erythema dose (MED) of the dorsal skin of mice was examined first. Minimal erythema dose means the minimum amount of erythema that can be derived with a clear border after 24 hours of irradiation. The mice were irradiated three times a week for 8 weeks with UV. During the first 3 weeks, the dose was increased by 1 MED (herein, 1 MED=30 mJ/cm2), and then 3 MED was maintained thereafter.
(§2) Premature female SKH-1 hairless mice were purchased from Charles River Laboratories (Wilmington, Mass.) and adapted for one week. The mice were housed in air-conditioned rooms in a 12-hour light/12-hour dark cycle to allow them to eat water and food freely. The room temperature was maintained at 23±3° C. and under humidity at 55±15%. All experiments were approved by the Animal Care and Use Committee at Gwangju Institute of Science and Technology.
(§3) After the adaptation period, mice were divided into 4 groups of 6 mice per each group. Each of the groups was as follows:
(c) Group of receiving 5 mg/kg daily chlorophyll a with UV irradiation
(d) Group of receiving 5 mg/kg pheophorbide a daily with UV irradiation
(§4) Chlorophyll a (Ca, Sigma-Aldrich, St Louis, Mo., USA) or pheophorbide a (Pa, Frontier Scientific, Logan, Utah, USA) was dissolved in a solution of 40% polyethylene glycol 400 (Sigma-Aldrich, St Louis, Mo., USA), respectively. As a control, vehicle was prepared with only 40% polyethylene glycol 400 solution and administered to mice in the negative control and positive control groups. The administration of test materials was made immediately after UV irradiation.
A digital camera (Sony Cybershot DSC-W570, 5× optical zoom, 16.1 megapixels, Sony Corporation, Tokyo, Japan) was used to obtain a clinical image of the dorsal skin after continuous exposure to low dose UV. The enlarged wrinkles were obtained using DermLite®IIHybridM (3Gen, LLC, San Juan Capistrano, Calif., USA) attached to the digital camera. The wrinkles of the dorsal skin of the mice were graded according to the method described by Bissett et al.. The grades were as follows:
Grade 0—no thick wrinkles;
Grade 1—a few shallow thick wrinkles;
Grade 2—some thick wrinkles;
Grade 3—multiple deep thick wrinkles.
A negatively imprinted replica was used to analyze the wrinkles of the skin, which is described by Ryu et al.. That is, a semi-fluidic silicone polymer was mixed with a catalyst (Imprint II Garant™ Light Body, 3M) and then applied to a dorsal skin sufficiently to penetrate into the wrinkles beyond a contour. This replica was analyzed under standard illumination with an incident angle where the replica was formed and set to produce a reflective shadow proportional to the height of the wrinkles. The captured images were analyzed from a shadow region in the images using image analysis software (ImageJ software, NIH Image, National Institutes of Health, Bethesda, Md., USA; online at: http://rsb.info.nih.gov/ij/).

[2] = system: dorsal skin of UV-irradiated SKH-1 hairless mice; experiment: Histological examination of dorsal skin of UV-irradiated mice (H&E, Masson-trichrome); assay type: in vivo, mouse; details: 5 mg/kg daily oral; for collagen breakdown in the dermis / infiltration of inflammatory cells in the epidermis and upper dermis: compared with the control group; for infiltration of inflammatory cells in the epidermis and upper dermis: H&E stain; for thickness of the epidermis: Masson-trichrome staining
Experimental: as §1, §2, §3, §4
Tissue samples taken from the dorsal skin of UV-irradiated mice were fixed in 4% paraformaldehyde and then included in paraffin. Thin sections with a thickness of 4 μm were stained with hematoxylin and eosin solution. To visualize collagen deposition, the sections were stained with Accustain trichrome stain (Sigma-Aldrich, St. Louis, Mo., USA). The epidermal thickness from a junction of the granular keratocytes to a junction of the dermis-epidermis was measured using an i-Solution DT image acquisition and analysis program (IMT 20 i-solution, Vancouver, Canada) and a Leica microscope (Leica, Wetzlar, Germany). To assess the thickness of the epidermis, any of the ten sites on the slide were measured. In […], inflammatory cells from epidermis to subcutaneous fat layer were calculated.

[3] = system: intercellular adhesion molecule-1 (ICAM-1); experiment: Immunohistochemical staining for ICAM-1 in dorsal skin of UV-irradiated mice; assay type: in vivo, mouse; details: 5 mg/kg daily oral, compared with the UV-only-irradiated group
Experimental: as §1, §2, §3
as §4, with “The administration of test materials was made immediately after UV irradiation.” left out

[4] = system: human dermal fibroblast (hDF) cells; experiment: Cell viability assay (water soluble tetrazolium) in UV-irradiated hDF cells; assay type: cell-based; details: UV 20 mJ/cm2, 0, 10, 20, 50 μM, 72 hours in the absence of light
Experimental: (§5) The primary human dermal fibroblast (hDF) cell line was obtained from Chonnam National University Medical School (Gwangju, Republic of Korea). The cells were cultured at 37° C. and under 5% CO2 using Dulbecco's Modified Eagle's Medium (DMEM, Gibco Laboratories, Grand Island, N.Y., USA) supplemented with 5% fetal bovine serum (Gibco Laboratories, Grand Island, N.Y., USA) and 1% penicillin (100 units/ml)/streptomycin ([…]).
(§6) Philips TL 20W/12 RS fluorescent sun lamp with emission spectra of 280 nm and 380 nm was used as an UV source. The UV intensity at the skin surface was measured using a UV detector (GUVx-T1xGS5-LA2, Genicom Daejeon, Korea). The UV irradiation intensity was 1.0 mW/cm2 at 30 cm from the UV source. The cells were cultured up to 75-80% of culture dish, washed twice with PBS buffer, and irradiated with UV to treat test materials. Thereafter, the cells were continuously cultured in the absence of light until the next analysis.
A water soluble tetrazolium test method was used for cell viability analysis. Quantification of living cells was performed using a […] Ez-cytox Cell Viability Assay Kit (Daeil Lab Co, Seoul, Korea). The formazan dye was analyzed spectrophotometrically by measuring the absorbance at 450 nm using a Chameleon multi-label plate reader (Hidex Personal Life Science, Hidex Oy, Finland). […]

MMP-1 [5] = experiment: Real-time RT-PCR of MMP-1 mRNA in UV-irradiated hDF cells; assay type: cell-based, human; details: cultured 24 hours, relative to GAPDH
Experimental: as §5, §6
(§7) Total RNA was isolated using a Trizol reagent (Invitrogen, Carlsbad, Calif., USA) according to the manufacturer's instructions. […] For the detection of fluorescence during the PCR amplification, SYBR Premix Ex Taq (Takara Bio, Otsu, Japan) was used. […]
(§8) In addition, UV was irradiated, the test materials were treated, cultured for 24 hours, and then the mRNA level of MMPs was analyzed using a real time RT PCR method. […]

MMP-3 [6] = experiment: Real-time RT-PCR of MMP-3 mRNA in UV-irradiated hDF cells; assay type: cell-based, human; details: cultured 24 hours, relative to GAPDH
Experimental: as §5, §6, §7, §8

MMP-1 [7] = experiment: Western blotting of MMP-1 protein in UV-irradiated hDF cells; assay type: cell-based, human; details: various concentrations
Experimental: as §5
as §6, with “analysis. […]” for “analysis.”

MMP-3 [8] = experiment: Western blotting of MMP-3 protein in UV-irradiated hDF cells; assay type: cell-based, human; details: various concentrations
Experimental: as §5
as §6, with “analysis. […]” for “analysis.”

[9] = system: c-Jun N-terminal kinase (JNK); experiment: Western blotting of phosphorylated JNK and JNK in UV-irradiated hDF cells; assay type: cell-based, human
Experimental: as §5, §6
The total protein extracts from the samples were dissolved in lysis buffer (50 mM Tris (pH 7.4), 150 mM NaCl, 1 mM EGTA, 1% NP-40, 0.25% sodium deoxycholate, 1 mM PMSF, and phosphatase inhibitor mixture (Sigma, St. Louis, Mo., USA) and then boiled for 5 minutes. The dissolved proteins were quantitated using Bio-Rad Protein Assay Dye Reagent Concentrate (Bio-Rad Laboratories, Hercules, Calif., USA) and then separated by SDS-PAGE and transferred to a polyvinylidene difluoride (PVDF) membrane (Amersham Pharmacia Biotech, Piscataway, N.J., USA). Membranes were reacted with specific primary antibodies overnight at 4° C., and protein bands were then visualized using secondary antibodies coupled with horseradish peroxidase (HRP) and a chemiluminescence detection kit (Amersham Pharmacia Biotech). […]

[10] = system: extracellular signal-regulated kinase (Erk); experiment: Western blotting of phosphorylated Erk in UV-irradiated hDF cells; assay type: cell-based, human; details: 20 μM and 50 μM, 2 hours in the absence of light
Experimental: as §5
as §6, with “analysis. […]” for “analysis.”

Molecule: C=Cc1c(C)c2cc3nc(c4c5[n-]c(cc6nc(cc1[n-]2)C(C)=C6CC)c(C)c5C(=O)[C@@H]4C(=O)OC)[C@@H](CCC(=O)OC/C=C(\C)CCC[C@H](C)CCC[C@H](C)CCCC(C)C)[C@@H]3C.[Mg+2] [chlorophyll a]
- visual wrinkle grade [1]: wrinkles grades were lower
- wrinkle area in replicated images [1]: a decrease in the wrinkle area
- thickness of wrinkles of dorsal skin [1]: remarkably reduced
- collagen breakdown in the dermis [2]: less collagen breakdown occurred
- infiltration of inflammatory cells in the epidermis and upper dermis [2]: reduced
- thickness of the epidermis [2]: A decrease in thickness
- level of ICAM-1 expression in the epidermis and upper dermis [3]: decreased

Molecule: pheophorbide a
- visual wrinkle grade [1]: wrinkles grades were lower
- wrinkle area in replicated images [1]: a decrease in the wrinkle area
- thickness of wrinkles of dorsal skin [1]: remarkably reduced
- collagen breakdown in the dermis [2]: less collagen breakdown occurred
- infiltration of inflammatory cells in the epidermis and upper dermis [2]: reduced
- thickness of the epidermis [2]: A decrease in thickness
- level of ICAM-1 expression in the epidermis and upper dermis [3]: decreased
- cell viability [4]: not affected
- MMP-1 mRNA level (MMP-1 [5]): significant decrease
- MMP-3 mRNA level (MMP-3 [6]): significant decrease
- MMP-1 protein expression level (MMP-1 [7]): decreased in proportion to the amount treated
- MMP-3 protein expression level (MMP-3 [8]): decreased in proportion to the amount treated
- MAPK phosphorylation inhibition ([9]; 10 μM, 2 hours): not as much as 20 μM and 50 μM
- expression level of phosphorylated JNK ([9]; 20 μM and 50 μM, 2 hours in the absence of light): decreased
- basal JNK protein level ([9]; 2 hours in the absence of light): decreased in proportion to the amount of pheophorbide a
- expression level of phosphorylated Erk [10]: decreased

Reference: patent US9861568B2, “Composition for improving skin conditions, containing chlorophyll a or pheophorbide a” (GWANGJU INSTITUTE OF SCIENCE AND TECHNOLOGY, priority 2014, dated 2018)
